Reference: patent US12084473B2, “β-D-2′-deoxy-2′-α-fluoro-2′-β-C-substituted-2-modified-N6-substituted purine nucleotides for HCV treatment” (Atea Pharmaceuticals, Inc., priority 2015, dated 2024)
Where two headings read alike, the source gives them in different places.

Legend:
HCV wild type replicon = test: microbe, parasite or virus in culture; assay type: cell-based; settings: NS5B Mutation None, transient assay, 96-hr
Experimental: (§1) A transient transfection assay was performed to determine the sensitivity of the […] of HCV to test compounds. Huh-7 cells were electroporated in the presence of RNA transcribed from wild type or S282T HCV replicon plasmids from the T7 promoter. The transfected cells were seeded in to 96-well plates at 7.5×10^3 cells per well in Dulbecco's Modified Eagle's medium. After 24 hr of incubation, medium was removed and replaced with fresh medium containing no or various concentrations of test compounds. Following an additional 96-hr incubation, the anti-HCV activity was measured by luciferase endpoint with Britelite™ Plus luminescence reporter gene kit (Perkin Elmer, Shelton, CT). Duplicate plates were treated and incubated in parallel for assessment of cellular toxicity by staining with the tetrazolium dye XTT.

HCV S282T replicon = test: microbe, parasite or virus in culture; assay type: cell-based; settings: NS5B Mutation S282T, transient assay, 96-hr
Experimental: as §1

Huh-7 luc/neo ET cells = test: Cytotoxicity by XTT staining in replicon cells
Experimental: (§2) The plates were cultured for 24 hours prior to the addition of compounds. Six serial one half log dilutions of the test articles (high test concentration of 100.0 μM or high test concentration of 1.0 μM) and human interferon-alpha2b (high test 10.0 U/ml) were prepared in cell culture medium and added to the cultured cells in triplicate wells for each dilution. Six wells in the test plates received medium alone as an untreated control. Following 72 hours of culture in the presence of compound, one of the plates was used for the determination of cytotoxicity by staining with XTT and the other for antiviral efficacy by determination of luciferase reporter activity. Cytotoxicity and efficacy data were collected and imported into a customized Excel workbook for determination of the TC50 and EC50 values. […] The y-axis is the percent of virus control and the x-axis is the concentration of drug in μM. […] The y-axis is the percent of virus control and the x-axis is the concentration of drug in M.

[1] = system: micro-patterned human hepatocyte co-cultures; test: Human Hepatocyte Co-Cultures (HepatoPac): cytotoxicity and hepatocyte health; assay type: cell-based
Experimental: Cytotoxicity and hepatocyte health were assessed in triplicate by measuring ALT leakage, urea production, albumin secretion and cellular ATP contents in micro-patterned human hepatocyte co-cultures (HepatoPac®, Hepregen Corporation) prepared by seeding cryopreserved human hepatocytes (single donor) and 3T3 J2 mouse fibroblasts in microtiter plates according to procedures established by Hepregen. Culture media was replaced with fresh media containing TA, test article, (0, 1, 10 or 30 μM) every 2 or 3 days through day 16. […] Cellular ATP levels were measured on days 9 and 21. ATP signals in stromal-only control cultures (murine 3T3 fibroblasts) were subtracted from those of human HepatoPac co-cultures to obtain hepatocyte-specific effects. See, Table 4, 5 and 6 below.

[2] = system: HCV Genotype 3a-1, NS5B Mutation none; test: microbe, parasite or virus in culture; assay type: cell-based; settings: genotype 3a-1, no NS5B mutation
Experimental: (§3) Various patient-derived HCV genotypes containing wild-type and resistance-associated variants were used to determine their relative replication sensitivity to test compounds. Replicon resistance test vectors (RTVs) containing the NS5B genomic regions were prepared using viral RNA isolated from plasma of HCV patients. Each NS5B region was amplified by reverse-transcription polymerase chain reaction and cloned into an HCV replicon RTV which was then transferred by electroporation into Huh-7 cells.

[3] = system: HCV Genotype 2b, NS5B Mutation none; test: microbe, parasite or virus in culture; assay type: cell-based; settings: genotype 2b, no NS5B mutation
Experimental: as §3

[4] = system: HCV Genotype 1a, NS5B Mutation L159F and S282T; test: microbe, parasite or virus in culture; assay type: cell-based; settings: genotype 1a, NS5B L159F and S282T
Experimental: as §3

[5] = system: HCV Genotype 4a, NS5B Mutation none; test: microbe, parasite or virus in culture; assay type: cell-based; settings: genotype 4a, no NS5B mutation
Experimental: as §3

[6] = system: HCV Genotype 1b, NS5B Mutation none; test: microbe, parasite or virus in culture; assay type: cell-based; settings: genotype 1b, no NS5B mutation
Experimental: as §3

[7] = system: HCV Genotype 1b, NS5B Mutation C316N; test: microbe, parasite or virus in culture; assay type: cell-based; settings: genotype 1b, NS5B C316N
Experimental: as §3

[8] = system: HCV Genotype 1a, NS5B Mutation none; test: microbe, parasite or virus in culture; assay type: cell-based; settings: genotype 1a, no NS5B mutation
Experimental: as §3

[9] = system: HCV Genotype 3a-2, NS5B Mutation none; test: microbe, parasite or virus in culture; assay type: cell-based; settings: genotype 3a-2, no NS5B mutation
Experimental: as §3

[10] = system: HCV Genotype 4d, NS5B Mutation none; test: microbe, parasite or virus in culture; assay type: cell-based; settings: genotype 4d, no NS5B mutation
Experimental: as §3

[11] = system: HCV Genotype 2a, NS5B Mutation none; test: microbe, parasite or virus in culture; assay type: cell-based; settings: genotype 2a, no NS5B mutation
Experimental: as §3

[12] = system: HCV Genotype 1a, NS5B Mutation L159F; test: microbe, parasite or virus in culture; assay type: cell-based; settings: genotype 1a, NS5B L159F
Experimental: as §3

[13] = target: HCV genotype 1b luciferase reporter replicon; test: microbe, parasite or virus in culture; assay type: cell-based; settings: read-out: EC50 in a replicon assay
Experimental: as §2

## sofosbuvir [reference compound]
HCV wild type replicon
  IC95 Value: 218 nM
HCV wild type replicon; read-out: IC50 Value
  IC50: 36.4 nM
HCV S282T replicon
  IC95 Value: >1000 nM
HCV S282T replicon; read-out: IC50 Value
  IC50: 278 nM
Huh-7 luc/neo ET cells
  TC50: greater than one hundred
[1]; Day 9, read-out: Effect on Cellular ATP Concentrations, 50% Inhibitory Concentration (IC50)
  IC50: 8600 nM
[1]; Day 21, read-out: Effect on Cellular ATP Concentrations, 50% Inhibitory Concentration (IC50)
  IC50: 2300 nM
[1]; Table 5, Day 2, read-out: Effect on Albumin Secretion, 50% Inhibitory Concentration (IC50)
  IC50: > 30000 nM
[1]; Table 5, Day 5, read-out: Effect on Albumin Secretion, 50% Inhibitory Concentration (IC50)
  IC50: 19500 nM
[1]; Table 5, Day 7, read-out: Effect on Albumin Secretion, 50% Inhibitory Concentration (IC50)
  IC50: 10900 nM
[1]; Table 5, Day 9, read-out: Effect on Albumin Secretion, 50% Inhibitory Concentration (IC50)
  IC50: 9300 nM
[1]; Table 6, Day 2, read-out: Effect on Albumin Secretion, 50% Inhibitory Concentration (IC50)
  IC50: > 30000 nM
[1]; Table 6, Day 5, read-out: Effect on Albumin Secretion, 50% Inhibitory Concentration (IC50)
  IC50: > 30000 nM
[1]; Table 6, Day 7, read-out: Effect on Albumin Secretion, 50% Inhibitory Concentration (IC50)
  IC50: > 30000 nM
[1]; Table 6, Day 9, read-out: Effect on Albumin Secretion, 50% Inhibitory Concentration (IC50)
  IC50: 12100 nM
[1]; Table 6, Day 12, read-out: Effect on Albumin Secretion, 50% Inhibitory Concentration (IC50)
  IC50: 6800 nM
[1]; Table 6, Day 16, read-out: Effect on Albumin Secretion, 50% Inhibitory Concentration (IC50)
  IC50: 2700 nM
[1]; Table 6, Day 21, read-out: Effect on Albumin Secretion, 50% Inhibitory Concentration (IC50)
  IC50: 2300 nM
[1]; text b588
  cytotoxicity to human co-cultured hepatocytes (in words): more cytotoxicity than AT-511
[2]
  IC95 Value: 689.8 nM
[2]; read-out: IC50 Value
  IC50: 126 nM
[3]
  IC95 Value: 295.3 nM
[3]; read-out: IC50 Value
  IC50: 44.8 nM
[4]
  IC95 Value: 16950.9 nM
[4]; read-out: IC50 Value
  IC50: 1620 nM
[5]
  IC95 Value: 681.4 nM
[5]; read-out: IC50 Value
  IC50: 74.9 nM
[6]
  Fold Change in IC50 from Sofosbuvir: 1.0
  IC95 Value: 642.2 nM
[6]; read-out: IC50 Value
  IC50: 86 nM
[7]
  IC95 Value: 472.8 nM
[7]; read-out: IC50 Value
  IC50: 73.9 nM
[8]
  IC95 Value: 507.7 nM
[8]; read-out: IC50 Value
  IC50: 62.7 nM
[9]
  IC95 Value: 808.1 nM
[9]; read-out: IC50 Value
  IC50: 124 nM
[10]
  IC95 Value: 1019.7 nM
[10]; read-out: IC50 Value
  IC50: 93.7 nM
[11]
  IC95 Value: 195.1 nM
[11]; read-out: IC50 Value
  IC50: 22.5 nM
[12]
  IC95 Value: 1067.5 nM
[12]; read-out: IC50 Value
  IC50: 115 nM
[13]
  EC50: 53 nM
